Results published in patent publication US7169591B1, “Preparation of enantio-specific epoxides” (priority 1999, dated 2007).

How the values were obtained:
[1] = tested on: Burkholderia sp. strain ENVBF1; assay: Enantiomeric ratio of monoepoxides (chiral GC), strain ENVBF1; format: cell-based
Procedure: (§1) To determine the ratio of R and S isomers of the epoxides formed from the oxidation of the alkenes, samples were analyzed for the presence of the epoxides and alkenes by gas chromatography as described above. When the epoxide concentration neared its maximum, or when the 80–90% of the substrate was degraded, the enantiomeric ratio of epoxides produced was determined by injecting a sample of the headspace gas onto a GC equipped with a chiral separation column (RT-BDEXSE; Restek, Inc., Bellefonte, Pa.) and a flame ionization detector. The column was maintained at 50° C.

[2] = tested on: Burkholderia sp. strain ENVBF1; assay: Alkene degradation assay, whole cells of Burkholderia sp. strain ENVBF1 (T4MO); format: cell-based
From the text: (§2) Pseudomonas mendocina KR1 (Yen et al., J. Bacteriol., 173:5315–5327 (1991)), the T4MO mutant of KR1 Pseudomonas mendocina ENVpmx1 (McClay et al., The 97th Annual Meeting of ASM, Abstract K36, page 348 (1997)), Pseudomonas pickettii PKO1 (Byrne et al., Gene, 154:65–70 (1995)), Burkholderia cepacia G4 (Shields et al., Appl. Environ. Microbiol., 55:1624–1629 (1989)), Burkholderia sp. strain ENVBF1 (McClay et al., Appl. Environ. Microbiol., 62:2716–2722 (1996)), and Pseudomonas sp. strain ENVPC5 (McClay et al., 1996, supra) were cultured overnight at 30° C. in shake flasks containing basal salts medium (BSM; 10) supplemented with 0.4% sodium glutamate. Toluene was included in the vapor phase when induction of the toluene oxygenases was desired. Prior to substrate degradation assays the cultures were harvested by centrifugation and resuspended in BSM to an optical density at 550 nm (OD550) of 2, unless otherwise indicated. A standard curve of optical density vs. protein concentration for each strain was used to calculate the amount of protein per ml of the resuspended cultures.
(§3) To determine the range of alkenes that could be degraded by the toluene monooxygenase and the degradation kinetics of the toluene monooxygenases, 5-ml aliquots of the resuspended cultures were dispensed to 25-ml serum vials and crimp sealed with Teflon™ faced septa. Gaseous alkene substrates were added as pure compounds by using a gas-tight syringe, and other alkene substrates were added from stock solutions (20% in dimethylformamide). The amount of individual alkene substrates added were as follows: 1-butene, 2-butene, and 1,3-butadiene, 2.2 μM; epoxy butane, 1,3-butadiene monoxide, and epichlorohydrine, 8 μM; 1- and 2-pentene, 9 μM; hexene, 4 μM; octadiene, 4.5 μM; 2-chloropropene, 11 μM; and, 2,3-dichloropropene, 12 μM unless otherwise indicated. The serum vials were then placed horizontally on a rotary shaker operating at 100 rpm. During incubation the temperature was maintained between 20–22° C. for the Pseudomonads and at 37° C. for E. coli. The serum vials were periodically removed from the shaker and a 10–25 μl portion of the headspace gas was withdrawn through the septa and injected onto a gas chromatograph (GC) equipped with a 30 m Vocol column (Supelco Inc. Bellefonte, Pa.) maintained at 160° C., and a flame ionization detector. This allowed the monitoring of both the alkene compounds as well as the epoxide products. The same protocol was used to detect the formation of 1,2-butanediol and butadiene diepoxide, except that 1 μl of the culture media was injected onto the column rather than the headspace gas.

[3] = tested on: Pseudomonas mendocina KR1; assay: Alkene degradation assay, whole cells of Pseudomonas mendocina KR1 (T4MO); format: cell-based
From the text: as §2, §3

[4] = tested on: Burkholderia cepacia G4 (T2MO); assay: Enantiomeric ratio of monoepoxides (chiral GC), strain G4; format: cell-based
Procedure: as §1

[5] = tested on: Pseudomonas sp. strain ENVPC5; assay: Enantiomeric ratio of monoepoxides (chiral GC), strain ENVPC5; format: cell-based; details: PC5
Procedure: as §1

[6] = tested on: Pseudomonas pickettii PKO1 (T3MO); assay: Enantiomeric ratio of monoepoxides (chiral GC), strain PKO1; format: cell-based; details: KO1 (PKO1)
Procedure: as §1

[7] = tested on: Pseudomonas sp. strain ENVPC5; assay: Alkene degradation assay, whole cells of Pseudomonas sp. strain ENVPC5 (T4MO); format: cell-based; details: for added substrate degraded: in 20 hours
From the text: as §2, §3

[8] = tested on: Pseudomonas mendocina KR1 (T4MO); assay: Enantiomeric ratio of monoepoxides (chiral GC), strain KR1; format: cell-based
Procedure: as §1

Burkholderia cepacia G4 = assay: Alkene degradation assay, whole cells of Burkholderia cepacia G4 (T2MO); format: cell-based; details: for alkene degraded that was detected as the epoxide product: toluene induced G4, 4.4 μmoles 1,3-butadiene or 2.2 μmoles 2-butene
From the text: as §2, §3

wild type organisms = assay: Alkene oxidation and epoxide detection (GC, PNBP), wild type organisms; format: cell-based; details: for epoxide detection during oxidation: wild type organisms
Procedure: as §3
The only epoxides relevant to this study that were commercially available were 1,3-butadiene mono-, and diepoxide. These were used in GC analyses to determine retention times and to quantitate the conversion of 1,3-butadiene to the corresponding epoxides. To verify that the observed peaks were epoxides, a modification of the method of van Hylckama et al. (van Hylckama et al., Appl. Environ. Microbiol., 62:3304–3312 (1996)) was used, whereby epoxides were conjugated with PNBP to form intensely colored adducts of the epoxides. Serum vials were prepared as before, except that prior to sealing the vials, Durham tubes were placed inside the vials, with the opening of the Durham tube extending out of the liquid. The substrate was then added and the vials were incubated with moderate shaking at a 45° angle to prevent the culture liquid from entering the Durham tube. The transformation of the alkenes was monitored by GC analysis. […] The vials were then allowed to incubate for 8 hours before they were opened and the epoxide containing PNBP withdrawn. The total volume of PNBP solution was combined with an equal volume of acetone-triethylamine (50:50) and mixed rapidly. Epoxide/PNBP adducts were detected by spectra analysis (400–700 nm).

[9] = tested on: E. coli (pRS202) expressing T4MO; assay: Alkene degradation assay, E. coli (pRS202) expressing T4MO; format: cell-based, Escherichia coli DH10B
Procedure: Escherichia coli DH10B containing the plasmid pRS202 (Pikus et al., Biochemistry, 35:9106–9119 (1996); Pikus et al., Biochemistry, 36:9283–9289 (1997)) was prepared in a similar manner except it was grown at 37° C. in LB media, and was resuspended to an OD550 of 4 in LB media with 0.3–1 mM IPTG to induce expression of T4MO.
as §3

[10] = tested on: Pseudomonas mendocina ENVpmx1; assay: Alkene degradation assay, T4MO deficient strain Pseudomonas mendocina ENVpmx1; format: cell-based
From the text: as §2, §3

[11] = ENVBF1, following 30 minutes incubation
[12] = following 30 minutes incubation
[13] = rate determined after 60 minutes of incubation

## C=CC=C [1,3-butadiene]
[1]
  monoepoxide formed, R enantiomer: 22%
  monoepoxide formed, S enantiomer: 78%
[2]; [11]
  Specific activity of toluene monooxygenase, substrate degraded: 0.13 μM substrate degraded/minute/mg protein
[3]; in 20 hours
  added substrate degraded: 50%
  substrate degraded: 1.1 µmol
[4]
  monoepoxide formed, R enantiomer: 8.1%
  monoepoxide formed, S enantiomer: 91.9%
[5]
  monoepoxide formed, R enantiomer: 32.7%
  monoepoxide formed, S enantiomer: 67.3%
[6]
  monoepoxide formed, R enantiomer: 19.6%
  monoepoxide formed, S enantiomer: 80.4%
[7]; [12]
  Specific activity of toluene monooxygenase, substrate degraded: 0.09 μM substrate degraded/minute/mg protein
[7]
  added substrate degraded: 50%
[8]
  monoepoxide formed, R enantiomer: 22.4%
  monoepoxide formed, S enantiomer: 77.6%
Burkholderia cepacia G4; G4
  time until oxidized to a concentration below the limits of detection: ≤ 6 h
Burkholderia cepacia G4
  alkene degraded that was detected as the epoxide product: > 95%

## C=CCCC [1-pentene]
[1]
  monoepoxide formed, R enantiomer: 66.3%
  monoepoxide formed, S enantiomer: 33.7%
Wild type organisms; all the wild type strains
  degradation: efficiently degraded
[2]; [11]
  Specific activity of toluene monooxygenase, substrate degraded: 0.05 μM substrate degraded/minute/mg protein
[3]; [12]
  Specific activity of toluene monooxygenase, substrate degraded: 0.21 μM substrate degraded/minute/mg protein
[9]
  degradation by the clone of T4MO: degraded
[4]
  monoepoxide formed, R enantiomer: 100%
  monoepoxide formed, S enantiomer: 0%
[5]
  monoepoxide formed, R enantiomer: 72.5%
  monoepoxide formed, S enantiomer: 27.5%
[6]
  monoepoxide formed, R enantiomer: 64.6%
  monoepoxide formed, S enantiomer: 35.4%
[7]; [12]
  Specific activity of toluene monooxygenase, substrate degraded: 0.15 μM substrate degraded/minute/mg protein
[8]
  monoepoxide formed, R enantiomer: 54.2%
  monoepoxide formed, S enantiomer: 45.8%
Burkholderia cepacia G4; G4, following 30 minutes incubation
  Specific activity of toluene monooxygenase, substrate degraded: 0.08 μM substrate degraded/minute/mg protein

## C=C(Cl)CCl [2,3-chloropropene, 2,3-dichloropropene]
Wild type organisms
  epoxide detection during oxidation: no epoxides were detected
[2]; ENVBF1
  amount oxidized, less than the amount of 2-chloropropene degraded by the same strain: 75.6%
[2]; ENVBF1, rate determined after 60 minutes of incubation
  Specific activity of toluene monooxygenase, substrate degraded: 0.08 μM substrate degraded/minute/mg protein
[3]
  amount oxidized, less than the amount of 2-chloropropene degraded by the same strain: 95.2%
[3]; [13]
  Specific activity of toluene monooxygenase, substrate degraded: 0.01 μM substrate degraded/minute/mg protein
[7]
  amount oxidized, less than the amount of 2-chloropropene degraded by the same strain: 66.0%
[7]; [13]
  Specific activity of toluene monooxygenase, substrate degraded: 0.12 μM substrate degraded/minute/mg protein
Burkholderia cepacia G4; G4
  amount degraded compared with the T4MO-expressing organisms: twice as much
Burkholderia cepacia G4; G4, rate determined after 60 minutes of incubation
  Specific activity of toluene monooxygenase, substrate degraded: 0.23 μM substrate degraded/minute/mg protein

## CC=CC [2-butene]
[2]; [11]
  Specific activity of toluene monooxygenase, substrate degraded: 0.12 μM substrate degraded/minute/mg protein
[3]
  time to degrade all the substrate: 3.5 h
[3]; in 20 hours
  added substrate degraded: Greater than 95%
[7]; [12]
  Specific activity of toluene monooxygenase, substrate degraded: 0.17 μM substrate degraded/minute/mg protein
[7]
  added substrate degraded: Greater than 95%
Burkholderia cepacia G4
  alkene degraded that was detected as the epoxide product: 43%

## C=C(C)Cl [2-chloropropene]
Wild type organisms
  epoxide detection during oxidation: no epoxides were detected
[2]; ENVBF1, first 3 hours of incubation
  substrate degraded: 2.3 µmol
[2]; [11]
  Specific activity of toluene monooxygenase, substrate degraded: 0.16 μM substrate degraded/minute/mg protein
[2]; ENVBF1, following 17 hours
  substrate degraded: 6.3 µmol
[3]; first 3 hours of incubation
  substrate degraded: 2.1 µmol
[3]; [12]
  Specific activity of toluene monooxygenase, substrate degraded: 0.07 μM substrate degraded/minute/mg protein
[3]; following 17 hours
  additional substrate degraded: 0.84 µmol
[7]; first 3 hours of incubation
  substrate degraded: 4 µmol
[7]; [12]
  Specific activity of toluene monooxygenase, substrate degraded: 0.18 μM substrate degraded/minute/mg protein
[7]; following 17 hours
  additional substrate degraded: 1.0 µmol

## C=CC1CO1 (stereo not shown) [BME, 1,3-butadiene monoepoxide]
[2]; induced ENVBF1, 24 hours
  epoxide oxidized: 13.4 µmol
[2]; uninduced ENVBF1, 24 hours
  epoxide degraded: less than 1.3 μmoles
Burkholderia cepacia G4; induced G4 in the presence of butadiene, approximately 5 hr
  epoxide degraded: 0.7 µmol
Burkholderia cepacia G4; induced G4 in the presence of toluene, approximately 5 hr
  epoxide degraded: 0.5 µmol
Burkholderia cepacia G4; toluene-induced G4, pure BME, first hour
  epoxide degraded: 8 µmol
Burkholderia cepacia G4; uninduced G4, first hour
  epoxide oxidized: less than 1 μmole

## hexene
Wild type organisms
  epoxide detection during oxidation: no epoxides were detected
[9]
  degradation by the clone of T4MO: degraded
[10]
  degradation compared with the wild type strains: at a greater rate than the wild type strains
  epoxide detection during oxidation: no epoxides were detected

## octadiene
Wild type organisms
  epoxide detection during oxidation: no epoxides were detected
[9]
  degradation by the clone of T4MO: did not oxidize
[10]
  degradation compared with the wild type strains: at a greater rate than the wild type strains
  epoxide detection during oxidation: no epoxides were detected

## pentene
[10]
  epoxide detection during oxidation: no epoxides were detected
